{"source": "paper PMC9574860", "about": "“Chemical Toolkit for PARK7: Potent, Selective, and High-Throughput” (Journal of Medicinal Chemistry, 2022)", "format_in_all_cases": "biochemical", "key": {"UCHL1 [1]": {"target": "T1, UCHL1 (Homo sapiens, UniProt P09936)", "T1 sequence (P09936 1-223)": "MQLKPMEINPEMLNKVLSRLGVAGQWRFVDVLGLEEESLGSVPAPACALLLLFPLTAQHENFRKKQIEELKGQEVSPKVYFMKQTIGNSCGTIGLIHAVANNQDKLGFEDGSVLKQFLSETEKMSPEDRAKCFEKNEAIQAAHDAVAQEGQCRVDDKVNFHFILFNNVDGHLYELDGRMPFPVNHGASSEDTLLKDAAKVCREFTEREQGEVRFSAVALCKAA", "test": "Gel-based competition assay with probe 8RK59, UCHL1 band", "method": "To assess the inhibitory potency and selectivity of these compounds toward PARK7 and UCHL1, we performed a gel-based competition assay (Figure 3A).[36] A mixture of equal amounts of PARK7 and UCHL1 (1 μM) was treated with each of the synthesized compounds (2 μM) for 1 h, followed by incubation with fluorescent probe 8RK59 (2 μM) for 30 min. Samples were resolved by SDS-PAGE, and the gel was scanned for fluorescence. Inhibition of PARK7 or UCHL1 is reflected by the disappearance of their corresponding bands (Figure 3B). […] The inhibition potential of JYQ-88 against PARK7 was assessed in a similar assay where PARK7 was incubated with a serial dilution of JYQ-88 before treatment with probe 8RK59 (Figure 3C). A clear inhibition is visible at 0.5 μM, and full inhibition is achieved between 1 and 2 μM. […] The selectivity of JYQ-88 between UCHL1 and PARK7 was further confirmed in a direct competition assay between equal amounts of PARK7 and UCHL1 (Figure 3F). PARK7 inhibition was observed starting from 0.5 μM JYQ-88, whereas inhibition of UCHL1 was only detected at 20 μM. Since JYQ-88 and 8RK64 are enantiomers, we assumed that the interactions with PARK7 should be similar. To investigate how the chiral center influences the selectivity, we solved the crystal structure of the PARK7−JYQ-88 complex with 1.42 Å resolution (Figure 3G, Table S1, PDB 7PA3). The global positioning of the inhibitor in between the two α-helices was similar to that for 8RK64. […] This way, the thiazolo-pyridine part of JYQ-88 is bound in a similar manner as 8RK64 and the earlier observed interactions are largely the same. The formation of the isothiourea moiety, stabilized by the interaction with Glu18, and the interaction between the thiazole amine and the amide NH2 of the Asn76 side chain are still present. However, the interaction between the azidoacetyl carbonyl with the Leu128 backbone carbonyl can no longer be observed due to the rotation of the azidoacetyl moiety. The Lys132 residue also seems to have rotated (compared to Figure 2C).\nThe assay was performed in Tris buffer as described above."}, "UCHL1 [2]": {"target": "T1, UCHL1", "test": "UCHL1 activity assay (Ub-Rho-Morpholine or Ub-AMC substrate)", "details": "UCHL1 1 nM, 1 h preincubation"}, "PARK7": {"target": "T2, PARK7 (Homo sapiens, UniProt Q99497)", "T2 sequence (Q99497 1-189)": "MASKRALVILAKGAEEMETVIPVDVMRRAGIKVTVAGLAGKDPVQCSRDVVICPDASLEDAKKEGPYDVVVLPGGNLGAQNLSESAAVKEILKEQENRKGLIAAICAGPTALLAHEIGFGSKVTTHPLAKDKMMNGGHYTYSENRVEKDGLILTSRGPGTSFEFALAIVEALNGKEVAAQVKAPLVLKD", "test": "DiFMUAc PARK7 activity assay", "parameters": "GST (N, cleaved yes); made in house; host or cells: E. coli BL21(DE3) Rosetta2", "method": "Compounds were transferred using a Labcyte Echo550 acoustic dispenser to obtain a 12-point serial dilution of 0.001 to 100 μM. Next, PARK7 (15 μL, final concentration of 0.1 μM) was dispensed with a Biotek MultiFlowFX liquid dispenser and incubated for 1 h, followed by dispensing the substrate DiFMUAc (5 μL, final concentration of 300 μM). The fluorescence intensity (FI) signal was monitored with a BMG Labtech PHERAstar plate reader (λex/em 350/450 nm) for 1 h.\nThe validation was performed in the PBS buffer with a reaction volume of 20 μL per well in triplicate. […] Next, PARK7 (15 μL, final concentration 0.1 μM) was dispensed with a Biotek MultiFlowFX liquid dispenser and incubated for 2 h, followed by dispensing the substrate DiFMUAc (5 μL, final concentration 300 μM). The FI signal was monitored with a BMG Labtech PHERAstar plate reader (λex/em 350/450 nm) for 1 h. The increase of FI signal compared with reference controls was used to calculate the remaining enzyme activity. The inhibition percentage of these 22 compounds was plotted as a heatmap using GraphPad Prism 9.0.1 software. Color gradients indicate inhibition percentage, no inhibiton (white) and full inhibition (blue)."}}, "note": "Where two headings read alike, the source gives them in different places."}
{"smiles": "N#CN1CC[C@@H](C(=O)Nc2nc3c(s2)CN(C(=O)CN=[N+]=[N-])CC3)C1", "note": "[JYQ-88, (R)-N-(5-(2-Azidoacetyl)-4,5,6,7-tetrahydrothiazolo[5,4-c]pyridin-2-yl)-1-cyanopyrrolidine-3carboxamide]", "values": [{"measurement": "Inhibition of UCHL1 (disappearance of 8RK59-labeled band)", "setting": "UCHL1 [1]; compound 2 μM, 1 h, PARK7 and UCHL1 1 μM each, then 8RK59 2 μM 30 min, Figure 3B", "result": "without inhibiting"}, {"measurement": "Concentration at which inhibition of UCHL1 was detected", "setting": "UCHL1 [1]; direct competition, equal amounts of PARK7 and UCHL1, Figure 3F", "result": 20, "unit": "µM"}, {"measurement": "IC50", "setting": "UCHL1 [2]; Figure 3E, read-out: UCHL1 IC50", "result": 11.1, "unit": "µM"}, {"measurement": "IC50", "setting": "UCHL1 [2]; read-out: UbRhoMP assay UCHL1 IC50", "result": 11.2, "unit": "µM"}, {"measurement": "IC50", "setting": "PARK7; DiFMUAc assay, PARK7 0.1 μM, 1 h preincubation, DiFMUAc 300 μM", "result": 0.13, "unit": "µM"}, {"measurement": "Fold higher potency toward PARK7 than UCHL1", "setting": "PARK7; PARK7 IC50 (DiFMUAc) vs UCHL1 IC50", "result": 85, "unit": "fold"}]}
